Test results published in ChEMBL document CHEMBL4819020, “Discovery of [1,2,4]triazolo[1,5-a]pyrimidines derivatives as potential anticancer agents” (Eur J Med Chem, 2021).
The source made the active and inactive calls. The rule behind the calls is not given here.

How the values were obtained:
MGC-803 [1] = assay: Antiproliferative activity against human MGC-803 cells assessed as inhibition of cell proliferation measured after 72 hrs by MTT assay; assay type: functional, cell-based; conditions: MGC-803, 72 h
MCF7 = assay: Antiproliferative activity against human MCF7 cells assessed as inhibition of cell proliferation measured after 72 hrs by MTT assay; assay type: functional, cell-based; conditions: MCF7, 72 h
PC-9 = assay: Antiproliferative activity against human PC-9 cells assessed as inhibition of cell proliferation measured after 72 hrs by MTT assay; assay type: functional, cell-based; conditions: PC-9, 72 h
GES1 = assay: Antiproliferative activity against human GES1 cells assessed as inhibition of cell proliferation measured after 72 hrs by MTT assay; assay type: cell-based; conditions: GES1, 72 h
MGC-803 [2] = assay: Antiproliferative activity against human MGC-803 cells assessed as cell viability measured after 24 to 72 hrs by MTT assay; assay type: functional, cell-based; conditions: dose 0.75-3 µM, time 24-72 hrs
MGC-803 [3] = assay: Antiproliferative activity against human MGC-803 cells assessed as inhibition of colony formation at 0.125 to 0.5 uM measured after 7 days by crystal violet dye based colony formation assay; assay type: functional, cell-based; conditions: dose 0.125-0.5 µM, time 7.0 day
MGC-803 [4] = assay: Cell cycle arrest in human MGC-803 cells assessed as accumulation of cells in G0/G1 phase at 0.75 uM measured after 24 hrs by PI staining based flow cytometry assay (reference value: 49.39%); assay type: functional
MGC-803 [5] = assay: Cell cycle arrest in human MGC-803 cells assessed as accumulation of cells in S phase at 1.5 uM measured after 24 hrs by PI staining based flow cytometry assay (reference value: 18.03%); assay type: functional
MGC-803 [6] = assay: Cell cycle arrest in human MGC-803 cells assessed as accumulation of cells in G2/M phase at 1.5 uM measured after 24 hrs by PI staining based flow cytometry assay (reference value: 33.35%); assay type: functional
MGC-803 [7] = assay: Cell cycle arrest in human MGC-803 cells assessed as accumulation of cells in G0/G1 phase at 3 uM measured after 24 hrs by PI staining based flow cytometry assay (reference value: 49.39%); assay type: functional
MGC-803 [8] = assay: Cell cycle arrest in human MGC-803 cells assessed as accumulation of cells in S phase at 3 uM measured after 24 hrs by PI staining based flow cytometry assay (reference value: 18.03%); assay type: functional
MGC-803 [9] = assay: Cell cycle arrest in human MGC-803 cells assessed as accumulation of cells in G2/M phase at 3 uM measured after 24 hrs by PI staining based flow cytometry assay (reference value: 33.35%); assay type: functional
MGC-803 [10] = assay: Induction of cell cycle arrest in human MGC-803 cells assessed as increase in p27 expression at 0.75 to 3 uM measured after 24 hrs by western blot assay; assay type: functional, cell-based; conditions: dose 0.75-3 µM
MGC-803 [11] = assay: Induction of apoptosis in human MGC-803 cells assessed by nuclear fragmentation at 0.75 to 3 uM measured after 48 hrs by Hoechst 33342 staining based microscopic method; assay type: functional, cell-based; conditions: dose 0.75-3 µM
MGC-803 [12] = assay: Induction of apoptosis in human MGC-803 cells assessed as viable cells at 0.75 uM measured after 48 hrs by Annexin V-FITC/PI staining based flow cytometry method (reference value: 92.3 %); assay type: functional; conditions: read-out: Activity
MGC-803 [13] = assay: Induction of apoptosis in human MGC-803 cells assessed as early apoptotic cells at 0.75 uM measured after 48 hrs by Annexin V-FITC/PI staining based flow cytometry method (reference value: 0.992 %); assay type: functional
MGC-803 [14] = assay: Induction of apoptosis in human MGC-803 cells assessed as late apoptotic cells at 0.75 uM measured after 48 hrs by Annexin V-FITC/PI staining based flow cytometry method (reference value: 3.10 %); assay type: functional
MGC-803 [15] = assay: Induction of apoptosis in human MGC-803 cells assessed as necrotic cells at 0.75 uM measured after 48 hrs by Annexin V-FITC/PI staining based flow cytometry method (reference value: 3.60 %); assay type: functional
MGC-803 [16] = assay: Induction of apoptosis in human MGC-803 cells assessed as viable cells at 1.5 uM measured after 48 hrs by Annexin V-FITC/PI staining based flow cytometry method (reference value: 92.3 %); assay type: functional; conditions: read-out: Activity
MGC-803 [17] = assay: Induction of apoptosis in human MGC-803 cells assessed as early apoptotic cells at 1.5 uM measured after 48 hrs by Annexin V-FITC/PI staining based flow cytometry method (reference value: 0.992 %); assay type: functional
MGC-803 [18] = assay: Induction of apoptosis in human MGC-803 cells assessed as late apoptotic cells at 1.5 uM measured after 48 hrs by Annexin V-FITC/PI staining based flow cytometry method (reference value: 3.10 %); assay type: functional
MGC-803 [19] = assay: Induction of apoptosis in human MGC-803 cells assessed as early apoptotic cells at 3 uM measured after 48 hrs by Annexin V-FITC/PI staining based flow cytometry method (reference value: 0.992 %); assay type: functional
MGC-803 [20] = assay: Induction of apoptosis in human MGC-803 cells assessed as late apoptotic cells at 3 uM measured after 48 hrs by Annexin V-FITC/PI staining based flow cytometry method (reference value: 3.10 %); assay type: functional
MGC-803 [21] = assay: Induction of apoptosis in human MGC-803 cells assessed as necrotic cells at 3 uM measured after 48 hrs by Annexin V-FITC/PI staining based flow cytometry method (reference value: 3.60 %); assay type: functional
MGC-803 [22] = assay: Induction of apoptosis in human MGC-803 cells assessed as upregulation of Bax at 0.75 to 3 uM measured after 48 hrs by western blot assay; assay type: functional, cell-based; conditions: dose 0.75-3 µM
MGC-803 [23] = assay: Induction of apoptosis in human MGC-803 cells assessed as decrease in Bcl-2 expression at 0.75 to 3 uM measured after 48 hrs by western blot assay; assay type: functional, cell-based; conditions: dose 0.75-3 µM
MGC-803 [24] = assay: Induction of apoptosis in human MGC-803 cells assessed as increase in p53 expression at 0.75 to 3 uM measured after 48 hrs by western blot assay; assay type: functional, cell-based; conditions: dose 0.75-3 µM
MGC-803 [25] = assay: Induction of apoptosis in human MGC-803 cells assessed as increase in cleaved caspase 3/9 expression at 0.75 to 3 uM measured after 48 hrs by western blot assay; assay type: functional, cell-based; conditions: dose 0.75-3 µM
MGC-803 [26] = assay: Inhibition of cell migration in human MGC-803 cells measured after 48 hrs by transwell assay; assay type: functional, cell-based; conditions: dose 0.25-1 µM
[27] = Toxicity in mouse assessed as mouse survival at 2 mg/kg, ig measured after 2 weeks; assay type: organism-based; conditions: in vivo, po, 336 h
[28] = Toxicity in mouse assessed by effect on changes in body weight at 2 mg/kg, ig measured after 2 weeks; assay type: organism-based; conditions: in vivo, po, 336 h
[29] = Toxicity in mouse assessed as effect on heart at 2 mg/kg, ig measured after 2 weeks by H and E staining based microscopic method; assay type: organism-based; conditions: in vivo, po, 336 h
[30] = Toxicity in mouse assessed as effect on liver at 2 mg/kg, ig measured after 2 weeks by H and E staining based microscopic method; assay type: organism-based; conditions: in vivo, po, 336 h
[31] = Toxicity in mouse assessed as effect on spleen at 2 mg/kg, ig measured after 2 weeks by H and E staining based microscopic method; assay type: organism-based; conditions: in vivo, po, 336 h
[32] = Selectivity index, ratio of EC50 for human MGC-803 cells to EC50 for human GES1 cells
MGC-803 [33] = assay: Antiproliferative activity against human MGC-803 cells assessed as cell viability measured at 0.75 to 3 uM by MTT assay; assay type: functional, cell-based; conditions: dose 0.75-3 µM, time 24-72 hrs, TDE = time-dependent effect

## Cc1cc(Nc2ccn(Cc3nc(C)c4ccccc4n3)n2)n2nc(SCc3ccc(Br)cc3)nc2n1
MGC-803 [1]
  IC50: 0.96 µM
MCF7
  IC50: 1.43 µM
PC-9
  IC50: 5.45 µM
GES1
  IC50: 36.8 µM
MGC-803 [2]
  Activity: Dose-Dependent Effect
MGC-803 [3]
  Activity: Active
MGC-803 [4]
  Activity: 56.2%
MGC-803 [5]
  Activity: 20.75%
MGC-803 [6]
  Activity: 14.61%
MGC-803 [7]
  Activity: 69.99%
MGC-803 [8]
  Activity: 18.5%
MGC-803 [9]
  Activity: 4.64%
MGC-803 [10]
  Activity: Dose-Dependent Effect
MGC-803 [11]
  Activity: Dose-Dependent Effect
MGC-803 [12]
  viability at 0.75 µM: 89.1%
MGC-803 [13]
  Activity: 2.17%
MGC-803 [14]
  Activity: 5.23%
MGC-803 [15]
  Activity: 3.46%
MGC-803 [16]
  viability at 1.5 µM: 80.3%
MGC-803 [17]
  Activity: 6.85%
MGC-803 [18]
  Activity: 10.4%
MGC-803 [19]
  Activity: 19.3%
MGC-803 [20]
  Activity: 27.7%
MGC-803 [21]
  Activity: 24.9%
MGC-803 [22]
  Activity: Dose-Dependent Effect
MGC-803 [23]
  Activity: Dose-Dependent Effect
MGC-803 [24]
  Activity: Dose-Dependent Effect
MGC-803 [25]
  Activity: Dose-Dependent Effect
MGC-803 [26]
  Activity: Dose-Dependent Effect
[27]
  Activity: Non-Toxic
[28]
  Activity: Non-Toxic
[29]
  Activity: Non-Toxic
[30]
  Activity: Non-Toxic
[31]
  Activity: Non-Toxic
[32]
  Ratio EC50: 38
MGC-803 [33]
  Activity: Tde
